The source of these data is US20130302362A1, “Immunomodulatory Compositions, Methods and Systems Comprising Immunogenic Fragments of ApoB-100” (CEDARS-SINAI MEDICAL CENTER, priority 2010, published 2013).

One test relates to atherosclerosis. The following applies: immunization with peptide or peptide combination; WO 02/080954 Table B; cited from earlier work.
A further test concerns superoxide. Put plainly: Aortic superoxide production by in situ dihydroethidine method (AngII model). It is filed as in vivo, mice. The following applies: ± SEM; N = 9.
For test [1], the system named is Male apoE KO mice. The test can be described thus: AngII-induced aortic aneurysm formation, rupture and survival after immunization.
Description: Fourteen P210, 17 cBSA, 16 PBS, and 8 Saline injected mice were examined.
AngII (1000 ng/Kg/min) was delivered by a subcutaneous osmotic pump implanted at 10 weeks of age for 4 weeks to cause aneurysms in all three groups. Saline was delivered to the control group. Mice were sacrificed at 14 weeks of age of age. The mice were fed normal chow for the duration of experiment.
42 P210, 46 cBSA, 37 PBS, and 8 Saline injected mice were examined.
AngII (1000 ng/Kg/min) was delivered by a subcutaneous osmotic pump implanted at 10 weeks of age for 4 weeks to cause aneurysms in all three groups. Saline was delivered to the control group. Mice were sacrificed at 14 weeks of age of age. The male apoE KO mice were fed normal chow for the duration of experiment.
AngII (1000 ng/Kg/min) was delivered by a subcutaneous osmotic pump implanted at 10 weeks of age for 4 weeks to cause aneurysms in all three groups. Saline was delivered to the control group. Mice were sacrificed at 14 weeks of age of age. 42 P210, 46 cBSA, 37 PBS, and 8 Saline injected mice were examined. Mice were sacrificed at 14 weeks of age. The male apoE KO mice were fed normal chow for the duration of experiment.
At 10 weeks of age, mice were subcutaneously implanted with an osmotic pump which released AngII (1 mg/Kg/min), and were euthanized 4 weeks later.
The test system of test [2] is naïve male apoE (−/−) recipient mice. The test can be described thus: Adoptive transfer of lymphocytes from immunized donors, aortic atherosclerosis in recipients. Type of test: in vivo. The settings on record: 2×10^7 donor B-cells/mouse. An excerpt:
Male apoE (−/−) mice on regular chow received subcutaneous immunization as described in previous paragraph and were sacrificed at 13 weeks of age as donors. Splenocytes from the same treatment group were pooled before cell isolation. Donor CD8(+) T-cells, CD4(+)CD25(+) T-cells or B-cells were isolated using Dynabeads FlowComp (Invitrogen) according to the manufacturer's protocols. CD4(+) T-cells were negatively selected from the splenocytes followed by positive selection of CD4(+)CD25(+) cells. B cells were negatively isolated whereas CD8(+) T-cells were positively isolated first and released from beads. The purity of pooled CD8(+) T-cells, CD4(+)CD25(+) T-cells and B-cells was 90%, 80% and 70%, respectively. The isolated CD8(+) T-cells (1×10^6 cells/mouse), CD4(+)CD25(+) T-cells (1×10^5 or 3×10^5 cells/mouse) or B-cells (2×10^7 cells/mouse) were then adoptively transferred to naïve male apoE (−/−) recipient mice at 6-7 weeks of age via tail vein injection. In the published literatures of vascular biology, the number of adoptively transferred lymphocytes varied greatly. For B-cells transfer, the number of 2×10^7 cells/mouse was chosen based on two prior reports, see references (11),(12). For CD4(+)CD25(+) T-cells transfer, the number of cells transferred ranged from 5×10^4 cells/mouse to 1×10^6 cells/mouse in the published literature see references (13),(14),(15). […]

In test [3] the test system is IFN-γ expression of dendritic cells (DCs). Put plainly: Flow cytometric analysis of intracellular IFN-γ expression of dendritic cells (AngII model). It is filed as in vivo, mice. The following applies: ± SEM of CD11c-gated cells. In general terms: A flow cytometer gives signals particle by particle.
For another test, the system named is CD11c(+) dendritic cells. The test can be described thus: Flow cytometric analysis of dendritic cells at immunization site and lymph nodes. It is filed as in vivo, mice. The following applies: 1 week after the third immunization; compared with cBSA/alum group. As to the method: (§1) Flow cytometric analysis was performed using standard protocols with antibodies listed in Table 1 below and a FACScan (Becton Dickinson) or a CyAn ADP analyzer (Beckman Coulter). For intracellular cytokine staining, Brefeldin A (3 μg/ml) was added to the cultured cells for 2 hours before cells subject to staining procedure. Cell membranes were permeabilized for staining intracellular molecules.
Since DCs are the major cell type upstream to both cellular and humoral immune responses, Applicants determined if these cells were affected by the immunization strategy. […]

The next test concerns Perforin. Put plainly: Perforin level in CD8(+) T-cells from immunized mice. It is filed as cell-based. The following applies: compared to PBS or cBSA/alum group. As to the method: as §1
The next test concerns BMDCs. Put plainly: Endocytosis of FITC-labeled p210 by DCs in vitro. It is filed as cell-based, mice. The settings on record: p210 labeled with FITC; FITC fluorescence in BMDCs. On the procedure:
(§2) The method for generating BMDC with GM-CSF was adapted from previous publication with modification see reference (19). Briefly, bone marrow cells from femurs and tibiae of male apoE−/− mice were plated into 10 cm culture plates (Falcon) with 20 ml complete RPMI-1640 containing 10 ng/ml GM-CSF (R&D Systems) and 10 ng/ml IL-4 (Invitrogen). Cells were washed and fed on day 3 and day 5 by removing the old medium followed by replenishing with fresh culture medium with GM-CSF and IL-4. On day 8, the immature DC appeared as non-adherent cells under the microscope and harvested by vigorous pipetting and subcultured into new culture plates with 2×10^5 DCs in 1.5 ml medium.
Peptide loading on BMDCs was defined using p210 labeled with FITC (FITC conjugating kit from Pierce).

Another test has as its system AT1 receptor (AT1R). The test can be described thus: Aortic AT1 receptor expression by Western blot (AngII model). The settings on record: ± SEM; N = 6. It is filed as in vivo, mice.
The subject of test [4] is Male apoE KO mice. The test can be described thus: Blood pressure and heart rate in AngII-infused immunized mice. Type of test: in vivo. As to the method: Saline was delivered to the control group.
Angiotensin II infusion via implanted osmotic pump was started at 10 weeks of age. Mice were euthanized at 14 weeks of age. Blood pressure was measured throughout the duration of experiment.

For a further test, the system named is Granzyme B. Put plainly: Granzyme B level in CD8(+) T-cells from immunized mice. The settings on record: compared to PBS or cBSA/alum group. It is filed as cell-based. On the procedure: as §1
A further test relates to bone marrow derived DCs. Put plainly: Cytolytic activity of CD8(+) T-cells from immunized mice against dendritic cells in vitro. It is filed as cell-based. On the procedure: as §2
CD8(+) T-cells were negatively isolated using a CD8 selection Dynabeads kit (Invitrogen) per manufacturer's protocol. […] After co-culture for 4 hours, cells were collected and processed for flow cytometric determination of CD11c and 7-AAD by LSR II flow cytometer (BD Biosciences) and data was analyzed with Summit V4.3 software. Dendritic cell death without CD8(+) T-cells in the co-culture was used as baseline and percentage of specific lysis of cells was calculated using a method described previously, see reference (20). […]
Applicants therefore assessed the effect of the vaccine on cytotoxic activity of CD8^+ T cells against syngeneic bone marrow-derived DCs. […]

A further test deals with KLH. The test can be described thus: KLH immunization after p210 immunization, KLH IgG titer. It is filed as in vivo, Male C57/BL6 mice. The following applies: prior p210 immunization vs PBS or cBSA/alum; 100 μg KLH s.c. at 13 and 15 weeks. An excerpt: (§3) The coating concentration was optimized in pilot experiments.
The test system of a further test is Male apoE (−/−) mice. The test can be described thus: p210 immunization, aortic atherosclerosis (en face Oil Red O; aortic sinus immunohistochemistry). Type of test: in vivo. An excerpt: Selection of peptides and their preparation for immunization The establishment and screening of human apoB-100 peptides has been reported (8). Based on Applicants pilot experiments and prior reports, see references (9),(10) Applicants selected peptide 210 (p210, KTTKQ SFDLS VKAQY KKNKH—SEQ ID NO: 210) as a candidate immunogen. Native p210 peptide (Euro-Diagnostica AB, Sweden) was conjugated to cationic bovine serum albumin (cBSA) as carrier using a method described previously see references (3), (4) Alum was used as adjuvant and mixed with peptide/cBSA conjugate with 1:1 ratio in volume. Peptide conjugation and mixing with alum were prepared fresh prior to each immunization.
Male apoE (−/−) mice (Jackson Laboratories) were housed in an animal facility accredited by the American Association of Accreditation of Laboratory Animal Care and kept on a 12-hour day/night cycle with unrestricted access to water and food. The Institutional Animal Care and Use Committee of Cedars-Sinai Medical Center approved the experimental protocols. […] Mice, maintained on normal chow diet, received subcutaneous primary immunization in the dorsal area between scapulas at 6-7 weeks of age, followed by a booster at 9 and 12 weeks of age. One week after last booster, diet was switched to high cholesterol chow (TD 88137, Harlan-Teklad) and continued until euthanasia at the age of 25 weeks. Separate groups of mice receiving PBS or cBSA/alum at the same immunization time-points served as control. Some mice were sacrificed at 8 or 13 weeks of age to assess immune response against p210.
At euthanasia the hearts were harvested and embedded in OCT compound (Tissue-Tek) for cryo-section. Whole aortas were cleaned, processed and stained with Oil Red 0 to assess the extent of atherosclerosis en face with computer-assisted histomorphometry, see references (3),(4).
The sections from aortic sinus were stained with MOMA-2 (Serotec), or CD11c (eBioscience) antibody to identify macrophages or dendritic cells immunohistochemically using standard protocol. Oil-Red-O stain for plaque size was done using standard protocol. […]

The test system of another test is CD8^+ CD25^− T cells. The test can be described thus: Presentation of p210 by DCs to CD8+ CD25− T cells in vitro. It is filed as cell-based, mice. The following applies: 48 hours; DCs loaded with p210 and treated with LPS; compared to untreated or LPS only. The source says: The p210 peptide contains the proteoglycan binding site of the apoB-100 molecule. This peptide is a cell-penetrating peptide capable of efficiently delivering antigens for cross-presentation to cytotoxic CD8^+ T cells.^53 Applicants therefore assessed activation of CD8^+ CD25^− T cells co-cultured with DCs loaded with p210 and matured with LPS.

The next test concerns TNP. Put plainly: TNP-LPS immunization after p210 immunization, TNP IgG titer. It is filed as in vivo, Male C57/BL6 mice. The settings on record: prior p210 immunization vs PBS or cBSA/alum; 100 μg TNP-LPS i.p.
Description: as §3

The mark [5] stands for this setting: AngII pump 4 weeks, total 14 p210, 17 cBSA.
Setting [6] is: 100 μg s.c., three immunizations, high cholesterol chow, euthanasia at 25 weeks.

On to “IEIGL EGKGF EPTLE ALFGK (IEIGLEGKGFEPTLEALFGK) [p45]”, for which the “percentage reduction (atherosclerosis)” value in the test on atherosclerosis was 47.4%.

As to “KTTKQ SFDLS VKAQY KKNKH (KTTKQSFDLSVKAQYKKNKH) [p210]”, in the test with superoxide, the Aortic superoxide production is 1.1 ± 0.1 arbitrary fluorescent intensity unit. Also, the “Aneurysmal segment/total segment (%)” value in the test on Male apoE KO mice [1] (8 aortic segments, AngII pump) was determined as 14.3%. Moreover, in the test on Male apoE KO mice [1] (28 days after osmotic pump implantation for Ang II infusion, 42 P210, 46 cBSA mice), the “Survival at 28 days” value is 90.5%. For the same substance, the Aneurysm incidence with Male apoE KO mice [1] (Ang II pump, 42 P210, 46 cBSA mice) stood at 54.8%. For the same substance, in the test with Male apoE KO mice [1] (setting [5]), the “Aneurysm (include Rupture) (number of mice)” value was 8; the “Rupture (number of mice)” value stood at 1; the “Rupture incidence (%, total)” value is listed as 7.1%; the “alive (number of mice)” value was found to be 13. For the same substance, the “atherosclerosis in recipients of B cells” value in test [2] is listed as “did not affect atherosclerosis”. For the same substance, the “LN CD11c+CD86+IFN-γ+ DCs” value in [3] (N = 6) was 26.7 ± 1.6 percentage. For the same substance, the “Spleen CD11c+CD86+IFN-γ+ DCs” value in [3] (N = 8) is 19.5 ± 1.6 percentage. The “CD11c(+)CD86(+) cells in lymph nodes” value in the test with CD11c(+) dendritic cells was “reduced CD11c(+)CD86(+) cells in lymph nodes”. The “perforin level in CD8(+) T-cells” value in the test with Perforin is “no difference in perforin level”. Also, the “uptake of FITC-labeled p210 by dendritic cells” value in the test with BMDCs is “uptake of p210 by dendritic cells”. Also, the “Aortic AT1R” value in the test on AT1 receptor (AT1R) is 1.0 ± 0.2 arbitrary densitometric unit. For the same substance, the “reduction in blood pressure” value in the test with Male apoE KO mice [4] (4 weeks after pump implantation (FIG. 11)) was about 11%. The “change in heart rate” value in the test on Male apoE KO mice [4] (4 weeks after pump implantation (FIG. 12A)) is about 7%. In the test on Male apoE KO mice [4] (± SEM at 13 weeks of age, p210 N = 9, cBSA N = 7), the “Mean Arterial Blood Pressure (BP)” value is given as 124 ± 4 mmHg. For the same substance, the “Granzyme B level in CD8(+) T-cells” value in the test with Granzyme B is reported as “higher level of Granzyme B”. Further, the “percent lysis relative to basal lysis, Normal medium” value with bone marrow derived DCs (CD8:DC 3:1, 4 hours, 10% FBS, CD11c-gated cells, N = 11) is “significantly increased the percentage of DC death”. In addition, the “cytolytic activity of CD8+ T cells after depletion of CD25+ cells” value in the test on bone marrow derived DCs (FIG. 15, panel B) is recorded as “abrogated the increased cytolytic activity”. Further, the “percentage reduction (atherosclerosis)” value in the test with atherosclerosis is listed as 57.9%. In the test on KLH, the KLH-IgG titer result is “no difference”. Further, in the test with Male apoE (−/−) mice (setting [6]), the “reduction of aortic atherosclerosis compared to PBS group” value came out at 57% and the “reduction of aortic atherosclerosis compared to cBSA/Alum group” value is 50%. Moreover, the “athero-reduction, dose comparison” value in the test with Male apoE (−/−) mice (pilot experiment, 100 μg dose compared to 25 or 50 μg dose) is listed as “optimum athero-reduction”. For the same substance, the “CD8+ CD25+ T cells after co-culture with p210-loaded DCs” value in the test with CD8^+ CD25^− T cells is reported as “significantly increased CD8^+ CD25^+ T cells”. The TNP-IgG titer result in the test on TNP was “no difference”.

For “HTFLI YITEL LKKLQ STTVM (HTFLIYITELLKKLQSTTVM) [p301]”, the “percentage reduction (atherosclerosis)” value in the test on atherosclerosis is on record as 55.2%.

As to “EEEML ENVSL VCPKD ATRFK (EEEMLENVSLVCPKDATRFK) [p1]”, in the test on atherosclerosis, the “percentage reduction (atherosclerosis)” value is listed as 31%.
